The text below walks through data of patent publication US6069176A, “Phenylethanolamine compounds useful as β 3 agonists, process for producing the same, and intermediates in the production of the same” (Mitsubishi-Tokyo Pharmaceuticals, Inc., priority 1995, dated 2000).

Structures can show the parent of a compound that is named as a salt. Where two headings read alike, the source gives them in different places.

The target in data set [1] is T1, β3 adrenergic receptor (Rattus norvegicus, UniProt P26255). Put plainly: [Test 1] spontaneous locomotion-suppressing effect on isolated rat colon (β3 adrenergic receptor stimulating effect). It counts as cell-based.
T1 sequence (P26255 whole entry): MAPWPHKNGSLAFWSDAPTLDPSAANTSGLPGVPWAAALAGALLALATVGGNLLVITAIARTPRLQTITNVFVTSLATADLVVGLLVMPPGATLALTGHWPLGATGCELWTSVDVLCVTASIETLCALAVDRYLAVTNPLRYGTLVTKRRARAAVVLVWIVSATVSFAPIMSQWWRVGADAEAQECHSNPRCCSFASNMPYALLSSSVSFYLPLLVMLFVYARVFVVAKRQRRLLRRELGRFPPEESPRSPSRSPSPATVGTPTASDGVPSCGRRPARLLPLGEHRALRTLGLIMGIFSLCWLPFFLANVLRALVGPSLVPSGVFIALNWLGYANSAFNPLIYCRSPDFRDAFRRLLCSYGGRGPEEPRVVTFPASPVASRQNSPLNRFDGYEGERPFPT
Data set [2] has as its target β2 adrenergic receptor (Cavia porcellus, UniProt Q8K4Z4). Kind of data set: [Test 3] relaxing effect on isolated guinea pig tracheal muscle (β2 adrenergic receptor stimulating effect). It counts as cell-based.
The target of data set [3] is T2, β1 adrenergic receptor (Cavia porcellus, UniProt H0W3H1).
T2 construct: functional heart beat increase (chronotropy)
T2 sequence (H0W3H1 1-470): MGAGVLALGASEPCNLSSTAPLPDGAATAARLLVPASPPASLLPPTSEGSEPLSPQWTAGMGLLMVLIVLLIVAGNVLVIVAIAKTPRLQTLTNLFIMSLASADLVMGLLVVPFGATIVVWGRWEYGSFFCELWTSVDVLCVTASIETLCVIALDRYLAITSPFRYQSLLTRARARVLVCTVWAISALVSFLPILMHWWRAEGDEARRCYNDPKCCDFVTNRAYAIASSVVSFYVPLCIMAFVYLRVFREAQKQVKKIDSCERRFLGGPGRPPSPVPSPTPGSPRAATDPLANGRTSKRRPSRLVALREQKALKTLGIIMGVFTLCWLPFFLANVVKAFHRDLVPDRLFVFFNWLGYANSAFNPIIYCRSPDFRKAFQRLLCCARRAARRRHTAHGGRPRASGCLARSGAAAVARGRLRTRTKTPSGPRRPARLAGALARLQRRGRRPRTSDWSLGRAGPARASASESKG
Kind of data set: [Test 4] heart beat increasing effect on isolated guinea pig right atrium (β1 adrenergic receptor stimulating effect). It counts as cell-based. The conditions noted are these: read-out: EC10 (heart beat increasing effect on isolated guinea pig right atrium).
Procedure: [Test 4] β1 adrenergic receptor stimulating effect
Isolated guinea pig right atrium strips were used to examine the heart beat increasing effect. Guinea pig right atriums were isolated by a common method, mounted in an organ bath filled with a nutrient medium (Krebs' buffer, 0.03 mM ascorbic acid, 0.03 mM EDTA, 10 M M phenanthramine) maintained at 37° C., gassed with 95% O2 and 5% CO2, and maintained at an initial tension of 0.5g, after which the cardiac contractile force and heart beats were recorded with a recorder.

Data set [4] deals with bladder detrusor muscle. The conditions noted are these: The autonomic nervous system, 26, 380-387 (1989); cited from earlier work.
For data set [5] the following is noted: treatment for urinary incontinence; cited from earlier work.
Data set [6] concerns isolated rat bladder detrusor muscle. Kind of data set: [Test 5] relaxing effect on isolated rat bladder detrusor muscle (smooth muscle). It counts as cell-based. The conditions noted are these: read-out: EC50 (relaxing effect on isolated rat bladder detrusor muscle). The protocol:
[Test 5] Examination of relaxing effect on isolated rat bladder detrusor muscle (smooth muscle)
Rat bladders were isolated by a common method for preparation of strips. The isolated bladder strips were mounted in an organ bath filled with Krebs' solution kept at 37° C., under mixed gas aeration (95% O2 +5% CO2) and subjected to an initial tension of 1.0 g. Each test compound was cumulatively added to the organ bath at intervals of 10 minutes.

For data set [7], the target named is T1, β3 adrenergic receptor. Kind of data set: cell-based. As to conditions: rat adipocyte suspension, 30 minutes at 30° C., glycerol content; read-out: lypolytic activity (EC50 value). More on the design: Isolated rat fat was used to examine the effect on fat decomposition; from tissue; host or cells: adipocytes from fat around the testicles of male SD rats; species or system rat (male SD rats).

Data set [8] has as its system rat bladder. Put plainly: [Test 9] bladder contraction induced by electrical stimulation of peripheral end of pelvic nerve in anesthetized rat. It counts as in vivo. As to conditions: through femoral vein; 20 Hz, 0.3 msec, 5V; urethane and α-chloralose anesthesia. An excerpt:
[Test 9] Effect on bladder contraction induced by electrical stimulation of peripheral end of pelvic nerve in anesthetized rat
After median incision in the abdomen of rats anesthetized with urethane and α-chloralose, the ureters on both sides were ligated and cut on the kidney side, and pledgets were placed on the cut sections to absorb the urine. Next, the hypogastric nerves on both sides were transected and the base of the penis were ligated at close the urethra. A small hole was opened in the top of bladder and, after inserting one end of a polyethylene tube, ligated. The other end of the polyethylene tube was connected to a pressure transducer (TP 400, Nihon Koden) to measure the intravesical pressure.
Physiological saline was injected into the bladder to obtain intravesical pressure at a 100 mm H2 O. The change of the intervesical pressure was recorded with a heat recorder (WT 685G, Nihon Koden). After ablating the left pelvic nerves from the fatty tissue around the bladder and cutting the central section, a platinum electrode was implanted at the peripheral end of the pelvic nerves. An electrical stimulation apparatus (SEN-3301, Nihon Koden) was used for generating a rectangular wave electrical stimulation (20 Hz, 0.3 msec, 5V) for 5 seconds every 5 minutes. […]

Data set [9] has as its system rat colon. Kind of data set: [Test 6] suppressing effect on spontaneous locomotion of anesthetized rat colon (in vivo test). More on the design: species or system rat (male Wistar rats). As to conditions: iv, 10 min, read-out: ED50 (suppressing effect on spontaneous locomotion of anesthetized rat colon). The protocol:
[Test 6] […] The lead wire of the force transducer was connected to a multipurpose preamp through a bridge box (FB-01, Star Medical), and the spontaneous locomotion of the colon was recorded with a Thermal Array Recorder (Nihon Koden), upon which the total degrees of contraction over 10 minutes were compared before and after bolus administration.

For data set [10], the system named is rat confinement stress-induced diarrhea models. Kind of data set: [Test 7] suppression of diarrhea in rat confinement stress-induced diarrhea models. It counts as in vivo, rat (male Wistar rats). The conditions noted are these: po, 1.0 mg/kg; feces observed over 3 hours.
Procedure: Examination of suppressing effect on diarrhea using rat confinement stress-induced diarrhea models
The nature of the feces excreted over a total of 3 hours was observed every 30 minutes, and the results were recorded as the diarrhea coefficient (0: no fecal excretion, 1: solid feces, 2: soft feces, 3: mild diarrhea, 4: muddy feces). Here, cases with a diarrhea coefficient score of 3 or higher, i.e. from feces which left a stain on filter paper to muddy feces, were judged as diarrhea, and the rate of diarrhea suppression was calculated (Table 6).
The conditions of data set [11]: Drugs of the Future, 18, 529-549 (1993); cited from earlier work.
The test system of data set [12] is β3 adrenergic receptors. As to conditions: prior art; cited from earlier work.
For data set [13], the system named is rat colon. As to conditions: Drugs of the Future, 18, 529-549 (1993); cited from earlier work.
Where [14] appears, read: 10% augmentation of heart beats, 37° C.

What is called EC50 is the concentration at which the effect is half-maximal. The term EC10 denotes the concentration at which the effect reaches the 10% level. A word on the ED50: it is the midpoint of the dose-response relation.

Chain of β2 adrenergic receptor (Q8K4Z4 whole entry): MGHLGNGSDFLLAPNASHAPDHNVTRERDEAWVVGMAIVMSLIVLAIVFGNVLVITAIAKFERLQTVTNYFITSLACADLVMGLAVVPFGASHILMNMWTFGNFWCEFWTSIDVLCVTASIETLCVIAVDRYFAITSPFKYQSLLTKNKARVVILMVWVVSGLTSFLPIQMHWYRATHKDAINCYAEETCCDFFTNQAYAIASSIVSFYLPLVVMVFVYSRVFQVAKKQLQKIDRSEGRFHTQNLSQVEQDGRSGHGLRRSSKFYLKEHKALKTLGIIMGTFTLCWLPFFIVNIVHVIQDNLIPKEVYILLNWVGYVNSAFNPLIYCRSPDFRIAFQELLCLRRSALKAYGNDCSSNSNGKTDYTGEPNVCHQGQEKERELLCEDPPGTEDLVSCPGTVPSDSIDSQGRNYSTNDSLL

On to `O=C(O)COc1ccc(C2CCCC(NC[C@H](O)c3cccc(Cl)c3)C2)cc1` (single isomer, unassigned) [Example 32, acetate], for which the values for the concentration for a half-maximal effect (EC50) in data set [1] and in data set [2] were 12 nM and 15000 nM, respectively. Besides, in data set [3] (setting [14]), the EC10 was more than 30000 nM.
On to `CC(C)(C)NCC(O)c1cc(Cl)c(N)c(Cl)c1` (stereo not shown) [Clenbuterol], for which the “relaxing effect on the bladder detrusor muscle” value in data set [4] is “relaxing effect on the bladder detrusor muscle”. Besides, the side-effects entry in [5] is “side-effects including finger tremor and palpitation”. Further, the concentration for a half-maximal effect (EC50) in [6] came out at 31 nM.
With `CCOC(=O)COc1ccc(C2CCCC(NC[C@H](O)c3cccc(Cl)c3)C2)cc1` (stereo partly drawn) [Example 28, (1R)-1-(3-Chlorophenyl)-2-[3-(4-ethoxycarbonylmethoxyphenyl)cyclohexylamino]ethanol hydrochloride], the EC50 turned out to be 15 nM in [1] and 1100 nM in [2].
For `CCOC(=O)C1(C(=O)OCC)Oc2ccc(C3CCCC(NC[C@H](O)c4cccc(Cl)c4)C3)cc2O1` (stereo partly drawn) [Example 60, (2R)-Diethyl 5-[3-[2-(3-chlorophenyl)-2-hydroxyethylamino]cyclohexyl]benzo-1,3-dioxol-2,2-dicarboxylate], in data set [1], a half-maximal response (EC50) required 42 nM.
Take `O=C([O-])COc1cccc(C2CCCC(NC[C@H](O)c3cccc(Cl)c3)C2)c1.[Na+]` (stereo partly shown): the EC50 turned out to be 21 nM in data set [7], 1.4 nM in data set [1], 4200 nM in data set [2] and 16 nM in data set [6]. Besides, the “suppression of bladder contraction (FIG. 2)” value in data set [8] is on record as “suppressed bladder contraction at a lower dose than Clenbuterol hydrochloride”. Besides, the median effective dose (ED50) in [9] came out at 0.27 µg/kg. This compound yielded a diarrhea suppression rate in data set [10] of 60%. For the same compound, the concentration for an effect of 10% (EC10) in data set [3] was more than 30000 nM.
On to `CCOC(=O)COc1ccc(C2CCC(NC[C@H](O)c3cccc(Cl)c3)C2)cc1` (stereo partly drawn) [Example 69, (2R)-Ethyl (4-[3-[2-(3-chlorophenyl)-2-hydroxyethylamino]cyclopentyl]phenoxy)acetate], for which the EC50 turned out to be 90 nM in data set [1] and 820 nM in [2]. The EC10 in [3] (setting [14]) is more than 30000 nM.
As for `O=C([O-])COc1ccccc1C1CCCC(NC[C@H](O)c2cccc(Cl)c2)C1.[Na+]` (stereo partly shown), the values for the concentration for a half-maximal effect (EC50) in data set [1] and in [2] were 3.3 nM and 890 nM, respectively. This compound registered a diarrhea suppression rate in [10] of 30%. Moreover, the 10% effect concentration (EC10) in data set [3] is more than 30000 nM.
Take `CCOC(=O)COc1cccc(C2CCCC(NC[C@H](O)c3cccc(Cl)c3)C2)c1` (stereo partly drawn) [Example 11, (1R)-1-(3-Chlorophenyl)-2-[3-(3-ethoxycarbonylmethoxyphenyl)cyclohexylamino]ethanol hydrochloride]: the half-maximal effective concentration (EC50) in [1] was 3.7 nM; in [2], 790 nM. In addition, the median effective dose (ED50) in [9] was 0.23 µg/kg. Besides, the 10% effect concentration (EC10) in data set [3] (setting [14]) was more than 30000 nM.
The compound `CCOC(=O)COc1cccc(C2CCCC(NC[C@H](O)c3cccc(Cl)c3)C2)c1` (stereo partly drawn) [Example 14, (1R)-1-(3-Chlorophenyl)-2-[3-(3-ethoxycarbonylmethoxyphenyl)cyclohexylamino]ethanol] displayed a diarrhea suppression rate in data set [10] of 50%.
For the compound `CCOC(=O)COc1ccccc1C1CCCC(NC[C@H](O)c2cccc(Cl)c2)C1` (stereo partly drawn) [Example 43, (1R)-(3-Chlorophenyl)-2-[3-(2-ethoxycarbonylmethoxyphenyl)cyclohexylamino]ethanol hydrochloride], the concentration giving a half-maximal response (EC50) in [1] stood at 3.8 nM; in [2], 820 nM. In addition, the diarrhea suppression rate in data set [10] was 50%. In addition, the EC10 in data set [3] (setting [14]) is more than 30000 nM.
On to `COC(=O)COc1ccc(C[C@@H](C)NC[C@H](O)c2cccc(Cl)c2)cc1` (relative stereo) [BRL35135, (R*R*)-(±)-[4-[2-[2-(3-chlorophenyl)-2-hydroxyethylamino]propyl]phenoxy]acetic acid methyl ester hydrobromide salt], for which the “lypolytic and hypoglycemic effect” value in data set [11] is “lypolytic and hypoglycemic effect”. In addition, the “selective action on β3 adrenergic receptors” value in data set [12] is given as “act selectively on β3 adrenergic receptors”.
In the case of `CC(C)NCC(O)c1ccc(O)c(O)c1` (stereo not shown) [Isoproterenol], the concentration for a half-maximal effect (EC50) in data set [6] stood at 10 nM.
Turning to `CCOC(=O)COc1ccc2c(c1)CC(NCC(O)c1cccc(Cl)c1)CC2.Cl` (racemic) [SR 58611A, (RS)-N-(7-ethoxycarbonylmethoxy-1,2,3,4-tetrahydronaphth-2-yl)-2-(3-chlorophenyl)-2-hydroxyethanamine hydrochloride, reference compound], the concentration giving a half-maximal response (EC50) in [1] turned out to be 7.7 nM; in data set [2], 14000 nM. The median effective dose (ED50) in data set [9] was 12 µg/kg. The compound further returned a diarrhea suppression rate in data set [10] of 20%. In addition, the “suppressing effect on spontaneous locomotion of rat colon” value in data set [13] is on record as “potent suppressing effect on spontaneous locomotion of rat colon”. Also, the concentration for an effect of 10% (EC10) in data set [3] (setting [14]) is more than 30000 nM. The “selective action on β3 adrenergic receptors” value in data set [12] is recorded as “act selectively on β3 adrenergic receptors”.
